What was measured:
CB2R = CB2R (Homo sapiens, UniProt P34972); test: CB2R radioligand binding competition ([3H]CP55,940); design: expressed in transfected cells; host or cells: HEK-293T (HEK-CB2 cell line); conditions: for Ki: displacement of [3H]CP 55,940, membranes of HEK-293T cells, n = 3; for SI Ki CB1R/Ki CB2R: selectivity index, affinity ratio; for CB2R % at 1 μM: percentage displacement of specific [3H]CP 55,940 binding at 1 μM, n = 2
CB1R = CB1R (Homo sapiens, UniProt P21554); test: CB1R radioligand binding competition ([3H]CP55,940); design: host or cells: CHO-CB1 C3 cell line; conditions: for CB1R % at 1 μM: percentage displacement of specific [3H]CP 55,940 binding at 1 μM, n = 2; for Ki: displacement of [3H]CP 55,940, membranes of CHO-CB1 C3 cells, n = 3
CB1R, sequence (P21554 whole entry): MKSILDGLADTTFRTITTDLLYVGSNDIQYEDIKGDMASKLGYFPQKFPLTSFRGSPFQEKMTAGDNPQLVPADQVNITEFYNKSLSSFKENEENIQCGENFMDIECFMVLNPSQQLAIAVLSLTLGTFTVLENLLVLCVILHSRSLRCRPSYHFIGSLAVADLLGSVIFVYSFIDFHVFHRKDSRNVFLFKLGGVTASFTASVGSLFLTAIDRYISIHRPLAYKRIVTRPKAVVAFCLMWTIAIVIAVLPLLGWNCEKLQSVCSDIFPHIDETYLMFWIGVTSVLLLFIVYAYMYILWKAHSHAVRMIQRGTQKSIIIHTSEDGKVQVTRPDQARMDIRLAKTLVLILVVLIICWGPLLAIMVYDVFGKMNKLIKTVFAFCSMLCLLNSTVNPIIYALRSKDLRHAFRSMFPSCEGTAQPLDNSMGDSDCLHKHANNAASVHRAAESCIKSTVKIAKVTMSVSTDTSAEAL

CB2R, sequence (P34972 whole entry): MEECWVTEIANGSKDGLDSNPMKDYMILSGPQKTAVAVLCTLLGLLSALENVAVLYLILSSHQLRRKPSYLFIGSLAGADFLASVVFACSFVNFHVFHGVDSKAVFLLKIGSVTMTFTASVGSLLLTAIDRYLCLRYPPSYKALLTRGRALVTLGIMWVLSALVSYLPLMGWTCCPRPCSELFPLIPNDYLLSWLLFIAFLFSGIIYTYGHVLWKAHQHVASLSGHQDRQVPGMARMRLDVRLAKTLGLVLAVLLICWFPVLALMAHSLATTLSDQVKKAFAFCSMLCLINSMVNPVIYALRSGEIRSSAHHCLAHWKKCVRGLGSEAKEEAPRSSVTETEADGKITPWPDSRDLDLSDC

| Compound | Ki (CB2R) [nM] | SI Ki CB1R/Ki CB2R (CB2R) | CB1R % at 1 μM (CB1R) [%] | Ki (CB1R) [nM] | CB2R % at 1 μM (CB2R) [%] |
| --- | --- | --- | --- | --- | --- |
| COC(=O)[C@H]1CCCN1C(=O)c1nn(Cc2ccc(F)cc2)c2ccccc12 [15p] | 157 ± 4 | >100 | 5 | – | – |
| COC(=O)[C@@H]1CCCN1C(=O)c1nn(Cc2ccc(F)cc2)c2ccccc12 [15o] | 16.5 ± 1.1 | 3 | – | 46.2 ± 2.3 | – |
| NC(=O)[C@H]1CCCN1C(=O)c1nn(CCCCCF)c2ccccc12 [17l] | – | – | 4 | – | 25 |
| COc1ccc2c(c1)c(CCN1CCOCC1)c(C)n2C(=O)c1cccc(Cl)c1Cl [GW405833, reference compound] | 5.8 ± 0.4 | 822 | – | 4770 ± 110 | – |
| CCCCCn1cc(C(=O)N2CCC[C@H]2C(N)=O)c2ccccc21 [17a] | – | – | 2 | – | 24 |
| COC(=O)[C@@H]1CCCCN1C(=O)c1nn(Cc2ccc(F)cc2)c2ccccc12 [16o] | 4.1 ± 0.12 | 16 | – | 65.4 ± 2.4 | – |
| NC(=O)[C@H]1CCCN1C(=O)c1nn(CC2CCCCC2)c2ccccc12 [17n] | – | – | 2 | – | 28 |
| COC(=O)[C@H]1CCCCN1C(=O)c1cn(CC2CCCCC2)c2ccccc12 [16f] | 93.1 ± 3.3 | >100 | 37 | – | – |
| NC(=O)[C@H]1CCCCN1C(=O)c1nn(CC2CCCCC2)c2ccccc12 [18n] | 112 ± 4 | >100 | 26 | – | – |
| CCCCCn1cc(C(=O)N2CCCC[C@H]2C(N)=O)c2ccccc21 [18a] | 111 ± 6 | >100 | 3 | – | – |
| CCCCCn1cc(C(=O)N2CCC[C@@H]2C(N)=O)c2ccccc21 [17b] | – | – | 3 | – | 17 |
| NC(=O)[C@@H]1CCCN1C(=O)c1cn(CC2CCCCC2)c2ccccc12 [17e] | 288 ± 7 | >100 | 6 | – | – |
| COC(=O)[C@@H]1CCCN1C(=O)c1cn(CC2CCCCC2)c2ccccc12 [15e] | 38.3 ± 2.1 | 0.3 | – | 11.3 ± 0.5 | – |
| NC(=O)[C@@H]1CCCN1C(=O)c1cn(Cc2ccc(F)cc2)c2ccccc12 [17g] | – | – | 3 | – | 20 |
| COC(=O)[C@@H]1CCCCN1C(=O)c1nn(CC2CCCCC2)c2ccccc12 [16m] | 5.2 ± 0.4 | 31 | – | 162 ± 3 | – |
| CCCCCn1nc(C(=O)N2CCC[C@@H]2C(=O)OC)c2ccccc21 [15j] | 208 ± 5 | >100 | 4 | – | – |
| COC(=O)[C@@H]1CCCN1C(=O)c1nn(CCCCCF)c2ccccc12 [15k] | 41.9 ± 2.1 | 4 | – | 173 ± 5 | – |
| COC(=O)[C@H]1CCCCN1C(=O)c1nn(Cc2ccc(F)cc2)c2ccccc12 [16p] | 48.4 ± 1.8 | >100 | – | – | – |
| NC(=O)[C@H]1CCCN1C(=O)c1cn(CCCCCF)c2ccccc12 [17d] | – | – | 5 | – | 16 |

| Compound | Ki (CB2R) [nM] | SI Ki CB1R/Ki CB2R (CB2R) | CB1R % at 1 μM (CB1R) [%] | Ki (CB1R) [nM] | CB2R % at 1 μM (CB2R) [%] |
| --- | --- | --- | --- | --- | --- |
| NC(=O)[C@@H]1CCCN1C(=O)c1cn(CCCCCF)c2ccccc12 [17c] | – | – | 1 | – | 15 |
| COC(=O)[C@@H]1CCCN1C(=O)c1cn(CCCCCF)c2ccccc12 [15c] | 71.7 ± 2 | 0.8 | – | 55.9 ± 2.7 | – |
| CCCCCn1nc(C(=O)N2CCC[C@H]2C(=O)OC)c2ccccc21 [15i] | 75.9 ± 2.2 | 4 | – | 337 ± 9 | – |
| NC(=O)[C@H]1CCCCN1C(=O)c1cn(Cc2ccc(F)cc2)c2ccccc12 [18h] | 207 ± 9 | >100 | 3 | – | – |
| CCCCCn1nc(C(=O)N2CCCC[C@@H]2C(N)=O)c2ccccc21 [18j] | 145 ± 6 | >100 | 2 | – | – |
| CCCCCn1nc(C(=O)N2CCC[C@H]2C(N)=O)c2ccccc21 [17i] | – | – | 2 | – | 31 |
| NC(=O)[C@H]1CCCN1C(=O)c1nn(Cc2ccc(F)cc2)c2ccccc12 [17p] | – | – | 4 | – | 12 |
| COC(=O)[C@H]1CCCCN1C(=O)c1cn(CCCCCF)c2ccccc12 [16d] | 251 ± 7 | >100 | 24 | – | – |
| CCCCCn1nc(C(=O)N2CCCC[C@H]2C(N)=O)c2ccccc21 [18i] | 91.8 ± 4.9 | >100 | 2 | – | – |
| COC(=O)[C@@H]1CCCN1C(=O)c1nn(CC2CCCCC2)c2ccccc12 [15m] | 20.7 ± 0.6 | 3 | – | 73.4 ± 2.9 | – |
| NC(=O)[C@H]1CCCCN1C(=O)c1cn(CCCCCF)c2ccccc12 [18d] | 169 ± 6 | >100 | 15 | – | – |
| NC(=O)[C@@H]1CCCN1C(=O)c1nn(CC2CCCCC2)c2ccccc12 [17m] | – | – | 1 | – | 27 |
| COC(=O)[C@H]1CCCN1C(=O)c1nn(CCCCCF)c2ccccc12 [15l] | 513 ± 3 | >100 | 1 | – | – |
| COC(=O)[C@H]1CCCN1C(=O)c1cn(Cc2ccc(F)cc2)c2ccccc12 [15h] | 599 ± 13 | >100 | 10 | – | – |
| NC(=O)[C@@H]1CCCCN1C(=O)c1cn(Cc2ccc(F)cc2)c2ccccc12 [18g] | 115 ± 5 | >100 | 21 | – | – |
| NC(=O)[C@@H]1CCCCN1C(=O)c1nn(CC2CCCCC2)c2ccccc12 [18m] | 59.5 ± 2.8 | >100 | 21 | – | – |
| COC(=O)[C@H]1CCCN1C(=O)c1cn(CC2CCCCC2)c2ccccc12 [15f] | 463 ± 11 | >100 | 32 | – | – |
| CCCCCn1cc(C(=O)N2CCC[C@@H]2C(=O)OC)c2ccccc21 [15b] | – | – | 4 | – | 25 |
| CCCCCn1cc(C(=O)N2CCC[C@H]2C(=O)OC)c2ccccc21 [15a] | 189 ± 10 | 0.6 | – | 121 ± 6 | – |

Reference: publication PMC12406204 (Journal of Medicinal Chemistry, 2025)
